In US6316409A, “Modified ligands of calcium-dependent binding proteins” (Medical Research Council, priority 1996, dated 2001):
Peptide text beside a SMILES is read from it.

How the values were obtained:
calmodulin = calmodulin (Bos taurus, UniProt P62157); experiment: kinetic analysis of N9 replacement peptides and multiple mutant by the methods of Examples 3 and 4; assay type: binding
Protocol: Real-time interaction analysis by surface plasmon resonance on a BIAcore instrument (Jonsson et al., 1991) was used to determine kon and koff constants. […] Different concentrations of calmodulin (5, 10, 20, 50 and 100 nM in the order of FIG. 2) were injected and allowed to associate with the peptides. Regeneration of the surface was achieved by injection of 5 μl TBS+[…] which dissociates the calmodulin-peptide complex.
30 nM fluorescein-labelled peptide/calmodulin complexes in gel buffer were competed at room temperature for different times with 30-fold excess of unlabelled peptide. The resulting mixtures were run on native PAGE gels and imaged by LUANA as described above. The bands in the image obtained were integrated using the LUANA software (Neri et al., 1996) and the corresponding intersities plotted versus time and fitted with a single exponential, from which koff constants were derived. In order to normalise band intensities against pipetting errors, the samples contained 6 nM free fluorescein which ran with the front. The fluorescein bands were integrated and used to normalise the calmodulin/fluorescent peptide complex band intensity. […] Incubation time in minutes is indicated under the lanes.
Hydrophobic donor residues (valine, phenylalanine and leucine) were chosen because it was hypothesized that these residues would contribute to the stability of the hydrophobic environment in the calmodulin core.

barnase = target: T1, barnase (Bacillus amyloliquefaciens, UniProt P00648); conditions: cited from earlier work
T1 sequence (P00648 48-157): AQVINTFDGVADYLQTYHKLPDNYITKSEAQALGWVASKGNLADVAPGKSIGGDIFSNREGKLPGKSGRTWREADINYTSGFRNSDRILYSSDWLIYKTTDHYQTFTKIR

Row | Molecule | koff (calmodulin; Table II, N9 replacement) [s⁻¹] | kon (calmodulin; Table II, N9 replacement) [M⁻¹ s⁻¹] | other results
1 | CC[C@H](C)[C@H](NC(=O)[C@H](CCCCN)NC(=O)[C@H](C)NC(=O)[C@H](Cc1ccccc1)NC(=O)[C@H](CCCNC(=N)N)NC(=O)[C@H](CC(N)=O)NC(=O)[C@H](C)NC(=O)[C@H](C)NC(=O)[C@H](C)NC(=O)[C@@H](NC(=O)[C@H](C)NC(=O)[C@@H](NC(=O)[C@H](Cc1ccccc1)NC(=O)[C@H](C)NC(=O)[C@H](CCCCN)NC(=O)[C@H](CCCCN)NC(=O)[C@H](Cc1c[nH]c2ccccc12)NC(=O)[C@H](CCCNC(=N)N)NC(=O)[C@H](C)NC(=O)[C@H](C)NC(=O)[C@H](C)NC(=O)[C@@H](N)CS)[C@@H](C)CC)C(C)C)C(=O)N[C@@H](C)C(N)=O [SEQ ID NO:19] (H-CAAARWKKAFIAVAAANRFAKIA-NH2; N-terminus and C-terminus assumed) | – | – | affinity for calmodulin compared with other peptides, in words (calmodulin): comparable to that of peptide 6; koff (calmodulin; multiple mutant): 5.9e-06 s⁻¹; kon (calmodulin; multiple mutant): 610000 M⁻¹ s⁻¹
2 | CC[C@H](C)[C@H](NC(=O)[C@H](Cc1ccccc1)NC(=O)[C@@H](NC(=O)[C@H](CCCCN)NC(=O)[C@H](CCCCN)NC(=O)[C@H](Cc1c[nH]c2ccccc12)NC(=O)[C@H](CCCNC(=N)N)NC(=O)[C@H](C)NC(=O)[C@H](C)NC(=O)[C@H](C)NC(=O)[C@@H](N)CS)C(C)C)C(=O)N[C@@H](C)C(=O)N[C@H](C(=O)N[C@@H](CO)C(=O)N[C@@H](C)C(=O)N[C@@H](C)C(=O)N[C@@H](CC(N)=O)C(=O)N[C@@H](CCCNC(=N)N)C(=O)N[C@@H](Cc1ccccc1)C(=O)N[C@@H](CCCCN)C(=O)N[C@@H](CCCCN)C(=O)N[C@H](C(=O)N[C@@H](CO)C(N)=O)[C@@H](C)CC)C(C)C [a] (H-CAAARWKKVFIAVSAANRFKKIS-NH2; N-terminus and C-terminus assumed) | 0.00035 | 850000 | –
3 | CC[C@H](C)[C@H](NC(=O)[C@H](Cc1ccccc1)NC(=O)[C@H](CC(C)C)NC(=O)[C@H](CCCCN)NC(=O)[C@H](CCCCN)NC(=O)[C@H](Cc1c[nH]c2ccccc12)NC(=O)[C@H](CCCNC(=N)N)NC(=O)[C@H](C)NC(=O)[C@H](C)NC(=O)[C@H](C)NC(=O)[C@@H](N)CS)C(=O)N[C@@H](C)C(=O)N[C@H](C(=O)N[C@@H](CO)C(=O)N[C@@H](C)C(=O)N[C@@H](C)C(=O)N[C@@H](CC(N)=O)C(=O)N[C@@H](CCCNC(=N)N)C(=O)N[C@@H](Cc1ccccc1)C(=O)N[C@@H](CCCCN)C(=O)N[C@@H](CCCCN)C(=O)N[C@H](C(=O)N[C@@H](CO)C(N)=O)[C@@H](C)CC)C(C)C [c] (H-CAAARWKKLFIAVSAANRFKKIS-NH2; N-terminus and C-terminus assumed) | 2.3e-05 | 1.1e+06 | –
4 | CC[C@H](C)[C@H](NC(=O)[C@H](Cc1ccccc1)NC(=O)[C@H](Cc1ccccc1)NC(=O)[C@H](CCCCN)NC(=O)[C@H](CCCCN)NC(=O)[C@H](Cc1c[nH]c2ccccc12)NC(=O)[C@H](CCCNC(=N)N)NC(=O)[C@H](C)NC(=O)[C@H](C)NC(=O)[C@H](C)NC(=O)[C@@H](N)CS)C(=O)N[C@@H](C)C(=O)N[C@H](C(=O)N[C@@H](CO)C(=O)N[C@@H](C)C(=O)N[C@@H](C)C(=O)N[C@@H](CC(N)=O)C(=O)N[C@@H](CCCNC(=N)N)C(=O)N[C@@H](Cc1ccccc1)C(=O)N[C@@H](CCCCN)C(=O)N[C@@H](CCCCN)C(=O)N[C@H](C(=O)N[C@@H](CO)C(N)=O)[C@@H](C)CC)C(C)C [b] (H-CAAARWKKFFIAVSAANRFKKIS-NH2; N-terminus and C-terminus assumed) | 2.9e-05 | 290000 | –
5 | barstar: physiological inhibitor of barnase (protein, UniProt P11540 2-90, looked up) Barstar: KKAVINGEQIRSISDLHQTLKKELALPEYYGENLDALWDCLTGWVEYPLVLEWRQFEQSKQLTENGAESVLQVFREAKAEGCDITIILS | – | – | association rate constant (barnase): 3.8e+09 M⁻¹ s⁻¹
